{
  "source": "paper PMC6105845",
  "about": "“Nucleotide Prodrug Containing a Nonproteinogenic Amino Acid To Improve Oral Delivery of a Hepatitis C Virus Treatment” (Antimicrobial Agents and Chemotherapy, 2018)",
  "molecular_target": "HINT1 (Homo sapiens, UniProt P49773)",
  "sequence (P49773 whole entry)": "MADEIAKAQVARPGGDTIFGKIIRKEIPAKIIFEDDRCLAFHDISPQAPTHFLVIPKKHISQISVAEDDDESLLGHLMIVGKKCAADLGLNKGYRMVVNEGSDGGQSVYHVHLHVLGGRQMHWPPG",
  "test": "P-N bond cleavage of metabolite X by HINT1",
  "type": "biochemical",
  "protocol": "Biochemical assays studying prodrug cleavage have been described previously ([8]). In brief, the cleavages of GS2 by CATA, CES1, CES2, and HINT1 were assessed in vitro. The reaction substrates and products were monitored over time by high-performance liquid chromatography (HPLC).",
  "data": [
    {"smiles": "CC(C)(NP(=O)(O)OC[C@H]1O[C@@](C#N)(c2ccc3c(N)ncnn23)[C@](C)(O)[C@@H]1O)C(=O)O", "note": "[metabolite X of GS2]", "values": [
      {"measurement": "HINT1 specific activity higher than toward metabolite X of GS-6620", "result": 5.7, "unit": "fold"},
      {"measurement": "HINT1 specific activity, P-N bond cleavage", "result": 341, "unit": "pmol/min/µg"}
    ]},
    {"smiles": "C[C@H](NP(=O)(O)OC[C@H]1O[C@@](C#N)(c2ccc3c(N)ncnn23)[C@](C)(O)[C@@H]1O)C(=O)O", "note": "[metabolite X of GS-6620]", "values": [
      {"measurement": "HINT1 specific activity, P-N bond cleavage", "result": 60, "unit": "pmol/min/µg"}
    ]}
  ]
}
